According to patent US20250188038A1, “CRYSTALLINE FORMS OF N-{[(S)-{[3-(4-CHLOROPHENYL)-4-PHENYL-4,5-DIHYDRO-1H-PYRAZOL-1-YL][4-(TRIFLUOROMETHYL)BENZENE” (Novo Nordisk A/S, priority 2022, published 2025):
In brackets after ≈: the same amount, converted by molar mass. Entries after “also recorded” stand apart in the source; their conditions may differ.

Legend:
Type in all cases: physicochemical
[1] = Ambient drying of wet cake solids, form followed by XRPD
Experimental: Form A obtained from anti-solvent addition in ACN/H2O was further investigated by analyzing the wet solids by XRPD. The sample was covered with 3511 Kapton film to minimize the solvent evaporation from the wet cake. A unique pattern, different from Form A was observed indicating a labile solvate phase forms in this solvent system.
Form B was obtained by temperature cycling in IPA. The formation of Form B was also observed in IPA slurry at RT and 60° C. Form B was further characterized by analyzing the wet cake by XRPD. The sample on the XRPD sample holder was covered by 3511 Kapton Film to minimize the solvent evaporation from the sample. […] Comparing the KF and TGA results, it was concluded that Form B is an IPA solvate, more specifically, a hemi-solvate determined by calculating the API:Solvent stoichiometry from the TGA weight loss to be 1:0.6.
(§1) Form D was obtained by temperature cycling in toluene. The formation of Form D was also observed in 60° C. slurry and slow cooling using toluene. Form D was further characterized by analyzing the wet solids by XRPD. The sample on the XRPD sample holder was covered by 3511 Kapton Film to minimize the solvent evaporation from the sample. […] The minimal weight loss observed indicated an anhydrous phase.
as §1, with “Form E” for “Form D”, “in IPAc/MTBE (1:3 v/v).” for “in toluene.”, “in anti-solvent addition, crash cooling, and” for “in 60° C.”, “slurry at RT experiments” for “slurry and slow cooling”, “using MTBE, 2-MeTHF, or” for “using”
Form F was obtained by temperature cycling in THF/H2O (0.92/0.08 v/v Aw=0.2). The formation of Form F was also observed in RT slurry in THF/H2O at Aw=0.4 and 0.6, and in temperature cycling in THF/H2O (1:3). Form F was further characterized by analyzing the wet solids by XRPD. The sample on the XRPD sample holder was covered by 3511 Kapton film to minimize the solvent evaporation. […] Comparing the KF and TGA results, it was concluded that Form F is likely a THF solvate.

[2] = Slurry competition of the six anhydrates in n-butanol (thermodynamic assessment); conditions: all anhydrates in equal mass ratios, RT and 50° C.
Experimental: A total of six anhydrates, Forms A, C, D, E, N, and Q were observed. A thermodynamic assessment of all anhydrates was performed by slurrying all anhydrates in equal mass ratios in a non-solvating solvent, n-Butanol, at RT and 50° C.

[3] = Slurry competition of Form K and Form C at various water activities (critical water activity); conditions: for Relative stability, Form K vs Form C slurry: EtOH/H2O
From the text: One hydrate (Form K) was observed and found to be a hemi-hydrate. […] It was suspected that EtOH may be forming a solvate that favors the formation of Form K because at higher water activities, the hydrate should be more thermodynamically stable. The values and results for obtaining the critical water activity follows the laws of thermodynamics and the results obtained from this experiment can be transferred to another solvent/H2O system. Additional critical water activity experiments were performed in acetone/H2O at Aw=0.5 and 0.9 using Form K and Form C.

[4] = Approximate solubility of Form A in 20 single solvents at RT; conditions: thermodynamic from solid
Experimental: Approximate solubility of Form A was determined in 20 single solvents at RT, respectively. Approximately 2 mg of Form A was added into a 3-mL glass vial. Corresponding solvents were added stepwise (50 μL-50 μL-200 μL-700 μL) into the vials until the solids were dissolved visually or a total volume of 1 mL was reached. The ranges of approximate solubility were calculated according to the mass of sample, volume of solvent and observation. The results summarized in Table 2 were used to guide the solvent selection in polymorph screening.

**Q.** Which “Solid form conversion upon ambient drying” value [1] does the source give for `CC(=O)N/C(N)=N/C(=N\S(=O)(=O)c1ccc(C(F)(F)F)cc1)N1C[C@H](c2ccccc2)C(c2ccc(Cl)cc2)=N1` [Form I, N-{[(S)-{[3-(4-chlorophenyl)-4-phenyl-4,5-dihydro-1H-pyrazol-1-yl][4-(trifluoromethyl)benzenesulfonamido]methylidene}amino]methanimidoyl}acetamide] here?
**A.** converted to Form B

**Q.** For `CC(=O)N/C(N)=N/C(=N\S(=O)(=O)c1ccc(C(F)(F)F)cc1)N1C[C@H](c2ccccc2)C(c2ccc(Cl)cc2)=N1` [Form N, N-{[(S)-{[3-(4-chlorophenyl)-4-phenyl-4,5-dihydro-1H-pyrazol-1-yl][4-(trifluoromethyl)benzenesulfonamido]methylidene}amino]methanimidoyl}acetamide], which “Relative thermodynamic stability of anhydrates (outcome of slurry competition)” value (“Relative thermodynamic stability” for short) [2] is on record?
**A.** conversion of all anhydrates to Form C

**Q.** Which “Solid form conversion upon ambient drying” value [1] does the source give for `CC(=O)N/C(N)=N/C(=N\S(=O)(=O)c1ccc(C(F)(F)F)cc1)N1C[C@H](c2ccccc2)C(c2ccc(Cl)cc2)=N1` [Form G, N-{[(S)-{[3-(4-chlorophenyl)-4-phenyl-4,5-dihydro-1H-pyrazol-1-yl][4-(trifluoromethyl)benzenesulfonamido]methylidene}amino]methanimidoyl}acetamide] here?
**A.** converted to Form F

**Q.** With `CC(=O)N/C(N)=N/C(=N\S(=O)(=O)c1ccc(C(F)(F)F)cc1)N1C[C@H](c2ccccc2)C(c2ccc(Cl)cc2)=N1` [Form C, N-{[(S)-{[3-(4-chlorophenyl)-4-phenyl-4,5-dihydro-1H-pyrazol-1-yl][4-(trifluoromethyl)benzenesulfonamido]methylidene}amino]methanimidoyl}acetamide] as the molecule, how does the “Relative thermodynamic stability” value [2] read?
**A.** thermodynamically most stable anhydrous form; also recorded: most stable anhydrate

**Q.** And the “Relative stability, Form K vs Form C slurry” value ([3]; Aw>0.9, equal mass ratios)?
**A.** more stable

**Q.** Which “Solid form conversion upon ambient drying” value [1] does the source give for `CC(=O)N/C(N)=N/C(=N\S(=O)(=O)c1ccc(C(F)(F)F)cc1)N1C[C@H](c2ccccc2)C(c2ccc(Cl)cc2)=N1` [Form P, N-{[(S)-{[3-(4-chlorophenyl)-4-phenyl-4,5-dihydro-1H-pyrazol-1-yl][4-(trifluoromethyl)benzenesulfonamido]methylidene}amino]methanimidoyl}acetamide] here?
**A.** converted to Form E

**Q.** Which “Relative thermodynamic stability” value [2] does the source give for `CC(=O)N/C(N)=N/C(=N\S(=O)(=O)c1ccc(C(F)(F)F)cc1)N1C[C@H](c2ccccc2)C(c2ccc(Cl)cc2)=N1` [Form E, N-{[(S)-{[3-(4-chlorophenyl)-4-phenyl-4,5-dihydro-1H-pyrazol-1-yl][4-(trifluoromethyl)benzenesulfonamido]methylidene}amino]methanimidoyl}acetamide] here?
**A.** conversion of all anhydrates to Form C

**Q.** With `CC(=O)N/C(N)=N/C(=N\S(=O)(=O)c1ccc(C(F)(F)F)cc1)N1C[C@H](c2ccccc2)C(c2ccc(Cl)cc2)=N1` [Form Q, N-{[(S)-{[3-(4-chlorophenyl)-4-phenyl-4,5-dihydro-1H-pyrazol-1-yl][4-(trifluoromethyl)benzenesulfonamido]methylidene}amino]methanimidoyl}acetamide] as the molecule, how does the “Relative thermodynamic stability” value [2] read?
**A.** conversion of all anhydrates to Form C

**Q.** Which solubility ([4]; Anisole, organic solvent or mixture) does the source give for `CC(=O)N/C(N)=N/C(=N\S(=O)(=O)c1ccc(C(F)(F)F)cc1)N1C[C@H](c2ccccc2)C(c2ccc(Cl)cc2)=N1` [Form A, N-{[(S)-{[3-(4-chlorophenyl)-4-phenyl-4,5-dihydro-1H-pyrazol-1-yl][4-(trifluoromethyl)benzenesulfonamido]methylidene}amino]methanimidoyl}acetamide] here?
**A.** > 10 mg/mL

**Q.** And the solubility ([4]; EtOH, organic solvent or mixture)?
**A.** > 10 mg/mL

**Q.** What about the solubility ([4]; IPA, organic solvent or mixture) of the same molecule?
**A.** < 3 mg/mL

**Q.** And the solubility ([4]; MTBE, organic solvent or mixture)?
**A.** < 3 mg/mL

**Q.** What about the solubility ([4]; Toluene, organic solvent or mixture) of the same molecule?
**A.** 2 to 10 mg/mL (≈ 3.38 to 16.9 mM)

**Q.** And the solubility ([4]; Water)?
**A.** < 3 mg/mL

**Q.** What about the solubility ([4]; n-heptane, organic solvent or mixture) of the same molecule?
**A.** < 3 mg/mL

**Q.** And the “Relative thermodynamic stability” value [2]?
**A.** conversion of all anhydrates to Form C

**Q.** Which “Relative thermodynamic stability” value [2] does the source give for `CC(=O)N/C(N)=N/C(=N\S(=O)(=O)c1ccc(C(F)(F)F)cc1)N1C[C@H](c2ccccc2)C(c2ccc(Cl)cc2)=N1` [Form D, N-{[(S)-{[3-(4-chlorophenyl)-4-phenyl-4,5-dihydro-1H-pyrazol-1-yl][4-(trifluoromethyl)benzenesulfonamido]methylidene}amino]methanimidoyl}acetamide] here?
**A.** conversion of all anhydrates to Form C

**Q.** Which “Stability of the hydrate (conclusion of critical water activity experiments)” value [3] does the source give for `CC(=O)N/C(N)=N/C(=N\S(=O)(=O)c1ccc(C(F)(F)F)cc1)N1C[C@H](c2ccccc2)C(c2ccc(Cl)cc2)=N1` [Form K, N-{[(S)-{[3-(4-chlorophenyl)-4-phenyl-4,5-dihydro-1H-pyrazol-1-yl][4-(trifluoromethyl)benzenesulfonamido]methylidene}amino]methanimidoyl}acetamide] here?
**A.** not a stable hydrate

**Q.** What about the “Relative stability, Form K vs Form C slurry” value ([3]; 0.1<Aw<0.9, equal mass ratios) of the same molecule?
**A.** more stable

**Q.** And the “Outcome of Form K and Form C slurry” value ([3]; acetone/H2O, Aw=0.5 and 0.9)?
**A.** conversion to Form C

**Q.** With `CC(=O)N/C(N)=N/C(=N\S(=O)(=O)c1ccc(C(F)(F)F)cc1)N1C[C@H](c2ccccc2)C(c2ccc(Cl)cc2)=N1` [Form H, N-{[(S)-{[3-(4-chlorophenyl)-4-phenyl-4,5-dihydro-1H-pyrazol-1-yl][4-(trifluoromethyl)benzenesulfonamido]methylidene}amino]methanimidoyl}acetamide] as the molecule, how does the “Solid form conversion upon ambient drying” value [1] read?
**A.** converted to Form D
